Laboratory results reported in US20090325964A1, “Piperazine Metabotropic Glutamate Receptor 5 (MGLUR5) Negative Allosteric Modulators For Anxiety/Depression” (Wyeth, priority 2008, published 2009).

Key:
mGluR5 = mGluR5 (Rattus norvegicus, UniProt P31424); experiment: IC50 column under 'Biological Activity' (assay not identified in the shown text; not the binding Ki)
rat mGluR5 receptor = biological target: T1, rat mGluR5 receptor (Rattus norvegicus, UniProt P31424); experiment: [3H]-MPEP displacement binding assay, HEK-293 cell membranes expressing rat mGluR5; conditions: [3H]-MPEP displacement, rat mGluR5 membranes; read-out: Median Ki
T1 construct: expressed in transfected cells; host or cells: HEK-293
T1 sequence (P31424 21-1203): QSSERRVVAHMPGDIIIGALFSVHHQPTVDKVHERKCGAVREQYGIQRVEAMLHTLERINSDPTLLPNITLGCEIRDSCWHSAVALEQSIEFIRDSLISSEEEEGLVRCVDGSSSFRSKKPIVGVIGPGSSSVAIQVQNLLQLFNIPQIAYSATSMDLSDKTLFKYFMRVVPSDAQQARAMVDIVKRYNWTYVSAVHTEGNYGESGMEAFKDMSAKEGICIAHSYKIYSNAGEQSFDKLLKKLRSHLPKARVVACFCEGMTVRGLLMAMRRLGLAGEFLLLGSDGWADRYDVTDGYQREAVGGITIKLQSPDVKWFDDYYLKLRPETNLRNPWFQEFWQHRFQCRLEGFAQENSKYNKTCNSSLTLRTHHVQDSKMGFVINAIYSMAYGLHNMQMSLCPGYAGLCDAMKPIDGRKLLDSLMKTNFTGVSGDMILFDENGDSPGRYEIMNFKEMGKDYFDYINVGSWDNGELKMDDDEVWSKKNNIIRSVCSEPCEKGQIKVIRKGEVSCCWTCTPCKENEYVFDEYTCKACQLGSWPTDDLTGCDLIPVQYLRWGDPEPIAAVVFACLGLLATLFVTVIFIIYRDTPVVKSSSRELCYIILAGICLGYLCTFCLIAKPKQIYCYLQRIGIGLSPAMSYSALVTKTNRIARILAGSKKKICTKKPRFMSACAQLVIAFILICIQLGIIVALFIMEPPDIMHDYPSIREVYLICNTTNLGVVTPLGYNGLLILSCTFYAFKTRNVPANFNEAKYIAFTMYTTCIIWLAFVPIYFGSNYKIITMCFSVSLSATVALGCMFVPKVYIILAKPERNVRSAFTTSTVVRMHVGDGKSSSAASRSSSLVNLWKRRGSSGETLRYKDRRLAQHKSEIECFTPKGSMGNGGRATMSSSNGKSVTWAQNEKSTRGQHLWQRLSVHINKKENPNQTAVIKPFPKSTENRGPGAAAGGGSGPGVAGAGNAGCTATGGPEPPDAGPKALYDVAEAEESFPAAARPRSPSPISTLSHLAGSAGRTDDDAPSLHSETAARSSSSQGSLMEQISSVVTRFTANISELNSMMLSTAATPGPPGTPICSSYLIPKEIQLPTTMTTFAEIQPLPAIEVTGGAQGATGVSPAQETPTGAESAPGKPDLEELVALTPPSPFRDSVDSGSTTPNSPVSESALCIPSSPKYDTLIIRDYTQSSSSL
Outline: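 Membranes from HEK-293 cells expressing rat mGluR5 (12-25 μg protein), incubated 60 min at room temperature with 4 nM [3H]-MPEP in 50 mM Tris pH 7.5, then filtered. Nonspecific binding defined with 10 μM MPEP.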

Sequence of mGluR5 (P31424 21-1203): as above

Row | SMILES | IC50 (mGluR5) | Ki (rat mGluR5 receptor)
1 | O=C(c1ccc(Cl)c(C#Cc2ccccn2)c1)N1CCN(c2ncccn2)CC1 [Compound 387, 2-{4-[4-chloro-3-(pyridin-2-ylethynyl)benzoyl]piperazin-1-yl}pyrimidine] | 0.131 µM | 0.01 µM
2 | O=C(c1ccc(Cl)c(C#Cc2ccccn2)c1)N1CCN(c2cnccn2)CC1 [Compound 388, 2-{4-[4-chloro-3-(pyridin-2-ylethynyl)benzoyl]piperazin-1-yl}pyrazine] | 0.094 µM | 0.013 µM
3 | N#Cc1cccnc1N1CCN(C(=O)c2ccc(Cl)c(C#Cc3ccccn3)c2)CC1 [Compound 389, 2-{4-[4-chloro-3-(pyridin-2-ylethynyl)benzoyl]piperazin-1-yl}nicotinonitrile] | 0.239 µM | 0.063 µM
4 | O=C(c1ccc(Cl)c(C#Cc2ccccn2)c1)N1CCN(c2nccs2)CC1 [Compound 390, 1-[4-chloro-3-(pyridin-2-ylethynyl)benzoyl]-4-(1,3-thiazol-2-yl)piperazine] | 0.039 µM | 0.007 µM
5 | O=C(c1ccc(Cl)c(C#Cc2ccccn2)c1)N1CCN(c2ccncc2)CC1 [Compound 391, 1-[4-chloro-3-(pyridin-2-ylethynyl)benzoyl]-4-pyridin-4-ylpiperazine] | 1.49 µM | 0.079 µM
6 | O=C(c1ccc(Cl)c(C#Cc2ccccn2)c1)N1CCN(c2cccc(O)c2)CC1 [Compound 393, 3-(4-{[4-chloro-3-(pyridin-2-ylethynyl)phenyl]carbonyl}piperazin-1-yl)phenol] | 0.144 µM | 0.012 µM
7 | O=C(c1ccc(Cl)c(C#Cc2ccccn2)c1)N1CCN(c2ncccc2Cl)CC1 [Compound 394, 1-(3-chloropyridin-2-yl)-4-{[4-chloro-3-(pyridin-2-ylethynyl)phenyl]carbonyl}piperazine] | 0.145 µM | 0.021 µM
8 | COc1cccc(N2CCN(C(=O)c3ccc(Cl)c(C#Cc4ccccn4)c3)CC2)c1 [Compound 395, 1-{[4-chloro-3-(pyridin-2-ylethynyl)phenyl]carbonyl}-4-(3-methoxyphenyl)piperazine] | 0.113 µM | 0.019 µM
9 | N#Cc1nccnc1N1CCN(C(=O)c2ccc(Cl)c(C#Cc3ccccn3)c2)CC1 [Compound 396, 3-(4-{[4-chloro-3-(pyridin-2-ylethynyl)phenyl]carbonyl}piperazin-1-yl)pyrazine-2-carbonitrile] | 0.047 µM | 0.017 µM
